Biological target: T1, IL-17A/A (Homo sapiens, UniProt Q16552)
T1 construct: purchased Genscript Z03228
T1 sequence (Q16552 24-155): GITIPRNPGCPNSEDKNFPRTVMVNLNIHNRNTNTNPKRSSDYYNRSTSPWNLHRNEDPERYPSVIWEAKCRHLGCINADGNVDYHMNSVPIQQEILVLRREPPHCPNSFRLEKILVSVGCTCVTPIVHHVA
Experiment: HEK-Blue IL-17A/A inhibition assay (SEAP reporter)
Format: cell-based
Settings: HEK-Blue cells (HEK 293 expressing IL-17RA, IL-17RC, Act1); IL-17A/A stimulation; 20 hours; SEAP read at A630; 4-parameter fit
Protocol: The HEK-Blue #NC108637 […]. Cells were grown and prepared for assays according to the manufacturer's instructions. This cell line consists of HEK 293 cells that were designed to expressed IL-17R^A, IL-17RC, and the ActI adapter molecule, the combination of which. when stimulated by IL-17A/A activates a NFtcB promoter and drives expression of a recombinant Secreted Alkaline Phosphatase (SEAP) geneprotein. Media from the cells is then added to a development reagent (Quanti-Blue Substrate, Fisher #NC971 1613), and read at A630.
Compounds were titrated in DMSO. with a top final compound concentration of 10 uM, 1 uM, or 0.3 uM, and added to the cells immediately before adding IL-17A/A (Genscript #Z03228). The cells, compound, and IL-17A/A were then incubated for 20 hours before media was removed for SEAP analysis. The resulting inhibition curve was then analyzed using Graphpad Prism 7.0, and IC50 values were determined using a 4-parameter nonlinear fit. DMSO was added to a universal final concentration of 0.1% to optimze background.

SMILES	IC50 [nM]
CC(C)C(C(=O)NCC(F)(F)F)c1ccc(NC(=O)[C@@H](NC(=O)c2ccnn2C(C)C)C(C2CC2)C2CC2)c(F)c1 (single isomer, unassigned) [Compound 128]	100 to 1000
CC(C)C(C(=O)NCC(F)(F)F)c1ccc(NC(=O)[C@@H](NC(=O)c2ccnn2C(C)C)C(C2CC2)C2CC2)c(F)c1 (single isomer, unassigned) [Compound 129]	> 1000
CC(C)n1nccc1C(=O)N[C@H](C(=O)Nc1ccc(C(CN2CCOCC2)C(=O)NCC(F)(F)F)cc1F)C(C1CC1)C1CC1 (single isomer, unassigned) [Compound 130]	> 1000
CC(C)n1nccc1C(=O)N[C@H](C(=O)Nc1ccc(C(CN2CCOCC2)C(=O)NCC(F)(F)F)cc1F)C(C1CC1)C1CC1 (single isomer, unassigned) [Compound 131]	100 to 1000
CC(C)n1nccc1C(=O)N[C@H](C(=O)Nc1ccc([C@H](C)C(=O)NC2CNCC2(F)F)cc1F)C(C1CC1)C1CC1 (single isomer, unassigned) [Compound 133]	> 1000
CC(C)n1nccc1C(=O)N[C@H](C(=O)Nc1ccc([C@H](C)C(=O)NC2CNCC2(F)F)cc1F)C(C1CC1)C1CC1 (single isomer, unassigned) [Compound 134]	100 to 1000
CC(C(=O)N(CC(N)=O)CC(F)(F)F)c1ccc(NC(=O)[C@@H](NC(=O)c2ccnn2C(C)C)C(C2CC2)C2CC2)c(F)c1 (single isomer, unassigned) [Compound 137]	< 100
CC(C(=O)N(CC(N)=O)CC(F)(F)F)c1ccc(NC(=O)[C@@H](NC(=O)c2ccnn2C(C)C)C(C2CC2)C2CC2)c(F)c1 (single isomer, unassigned) [Compound 138]	> 1000
CC(C)n1nccc1C(=O)N[C@H](C(=O)Nc1ccc(C(C(=O)NCC(F)(F)F)N2CCOCC2)cc1F)C(C1CC1)C1CC1 (single isomer, unassigned) [Compound 140]	> 1000
CC(C)n1nccc1C(=O)N[C@H](C(=O)Nc1ccc(C(C(=O)NCC(F)(F)F)N2CCOCC2)cc1F)C(C1CC1)C1CC1 (single isomer, unassigned) [Compound 141]	> 1000
CCC(C(=O)NCC(F)(F)F)c1ccc(NC(=O)[C@@H](NC(=O)c2ccnn2C(C)C)C(C2CC2)C2CC2)c(F)c1 (single isomer, unassigned) [Compound 149]	100 to 1000
CCC(C(=O)NCC(F)(F)F)c1ccc(NC(=O)[C@@H](NC(=O)c2ccnn2C(C)C)C(C2CC2)C2CC2)c(F)c1 (single isomer, unassigned) [Compound 150]	> 1000
CC(C)n1nccc1C(=O)N[C@H](C(=O)Nc1ccc([C@H](C)C(=O)NC(C2CCOC2)C(F)(F)F)cc1F)C(C1CC1)C1CC1 (single isomer, unassigned) [Compound 151]	100 to 1000
CC(C)n1nccc1C(=O)N[C@H](C(=O)Nc1ccc([C@H](C)C(=O)NC(C2CCOC2)C(F)(F)F)cc1F)C(C1CC1)C1CC1 (single isomer, unassigned) [Compound 152]	100 to 1000
CC(=O)NC(C(=O)NCC(F)(F)F)c1ccc(NC(=O)[C@@H](NC(=O)c2ccnn2C(C)C)C(C2CC2)C2CC2)c(F)c1 (single isomer, unassigned) [Compound 167]	100 to 1000
CCn1nccc1C(=O)N[C@H](C(=O)Nc1c(F)cc(C(C)C(=O)NCC(F)(F)F)cc1F)C(C1CC1)C1CC1 (single isomer, unassigned) [Compound 170]	> 1000
CCn1nccc1C(=O)N[C@H](C(=O)Nc1c(F)cc(C(C)C(=O)NCC(F)(F)F)cc1F)C(C1CC1)C1CC1 (single isomer, unassigned) [Compound 171]	100 to 1000
CC(C(=O)NCC(F)(F)F)c1cc(F)c(NC(=O)[C@@H](NC(=O)c2ccnn2C(C)C)C(C2CC2)C2CC2)cc1OC(F)(F)F (single isomer, unassigned) [Compound 185]	< 100
CC(C(=O)NCC(F)(F)F)c1cc(F)c(NC(=O)[C@@H](NC(=O)c2ccnn2C(C)C)C(C2CC2)C2CC2)cc1NC(F)(F)F (single isomer, unassigned) [Compound 186]	100 to 1000
CC(C)n1nccc1C(=O)N[C@H](C(=O)Nc1ccc(C(N)C(=O)NCC(F)(F)F)cc1F)C(C1CC1)C1CC1 (single isomer, unassigned) [Compound 189]	> 1000
CC(C)n1nccc1C(=O)N[C@H](C(=O)Nc1ccc(C(N)C(=O)NCC(F)(F)F)cc1F)C(C1CC1)C1CC1 (single isomer, unassigned) [Compound 191]	100 to 1000

Further lines, results first:

IC50 [nM]	SMILES
100 to 1000	CC(C(=O)NCC(F)(F)F)c1cc(F)c(NC(=O)[C@@H](NC(=O)c2ccnn2C(C)C)C(C2CC2)C2CC2)cc1C1CC1 (single isomer, unassigned) [Compound 126]
< 100	CC(C(=O)NCC(F)(F)F)c1cc(F)c(NC(=O)[C@@H](NC(=O)c2ccnn2C(C)C)C(C2CC2)C2CC2)cc1C1CC1 (single isomer, unassigned) [Compound 127]
< 100	CC(C)n1nccc1C(=O)N[C@H](C(=O)Nc1ccc([C@H](C)C(=O)N2CC(O)CC2C(F)(F)F)cc1F)C(C1CC1)C1CC1 (single isomer, unassigned) [Compound 142]
100 to 1000	CC(C)n1nccc1C(=O)N[C@H](C(=O)Nc1ccc([C@H](C)C(=O)N2CC(O)CC2C(F)(F)F)cc1F)C(C1CC1)C1CC1 (single isomer, unassigned) [Compound 143]
> 1000	CC(C)n1nccc1C(=O)N[C@H](C(=O)Nc1ccc([C@H](C)C(=O)N2CC(O)CC2C(F)(F)F)cc1F)C(C1CC1)C1CC1 (single isomer, unassigned) [Compound 144]
> 1000	CC(C)n1nccc1C(=O)N[C@H](C(=O)Nc1ccc([C@H](C)C(=O)N2CC(O)CC2C(F)(F)F)cc1F)C(C1CC1)C1CC1 (single isomer, unassigned) [Compound 145]
> 1000	CC(C)n1nccc1C(=O)N[C@H](C(=O)Nc1ccc([C@H](C)C(=O)N2C(C(N)=O)CCC2C(F)(F)F)cc1F)C(C1CC1)C1CC1 (single isomer, unassigned) [Compound 146]
> 1000	CC(C)n1nccc1C(=O)N[C@H](C(=O)Nc1ccc([C@H](C)C(=O)N2C(C(N)=O)CCC2C(F)(F)F)cc1F)C(C1CC1)C1CC1 (single isomer, unassigned) [Compound 147]
> 1000	CC(C)n1nccc1C(=O)N[C@H](C(=O)Nc1ccc([C@H](C)C(=O)N2C(C(N)=O)CCC2C(F)(F)F)cc1F)C(C1CC1)C1CC1 (single isomer, unassigned) [Compound 148]
< 100	CCOC(=O)Nc1cc(NC(=O)[C@@H](NC(=O)c2ccnn2C(C)C)C(C2CC2)C2CC2)c(F)cc1C(C)C(=O)NCC(F)(F)F (single isomer, unassigned) [Compound 158]
< 100	CC(=O)Nc1cc(NC(=O)[C@@H](NC(=O)c2ccnn2C(C)C)C(C2CC2)C2CC2)c(F)cc1C(C)C(=O)NCC(F)(F)F (single isomer, unassigned) [Compound 159]
< 100	COC(=O)Nc1cc(NC(=O)[C@@H](NC(=O)c2ccnn2C(C)C)C(C2CC2)C2CC2)c(F)cc1C(C)C(=O)NCC(F)(F)F (single isomer, unassigned) [Compound 161]
< 100	CC(C(=O)N(C)CC(F)(F)F)c1cc(F)c(NC(=O)[C@@H](NC(=O)c2ccnn2C(C)C)C(C2CC2)C2CC2)cc1N(C)C (single isomer, unassigned) [Compound 162]
< 100	CC(C(=O)NCC(F)(F)F)c1cc(F)c(NC(=O)[C@@H](NC(=O)c2ccnn2C(C)C)C(C2CC2)C2CC2)cc1N(C)C (single isomer, unassigned) [Compound 163]
< 100	CNc1cc(NC(=O)[C@@H](NC(=O)c2ccnn2C(C)C)C(C2CC2)C2CC2)c(F)cc1C(C)C(=O)NCC(F)(F)F (single isomer, unassigned) [Compound 164]
100 to 1000	Cc1cc(NC(=O)[C@@H](NC(=O)c2ccnn2C(C)C)C(C2CC2)C2CC2)c(F)cc1C(C)C(=O)N1CC(O)CC1C(F)(F)F (single isomer, unassigned) [Compound 172]
< 100	Cc1cc(NC(=O)[C@@H](NC(=O)c2ccnn2C(C)C)C(C2CC2)C2CC2)c(F)cc1C(C)C(=O)N1CC(O)CC1C(F)(F)F (single isomer, unassigned) [Compound 173]
< 100	COc1cc(NC(=O)[C@@H](NC(=O)c2ccnn2C(C)C)C(C2CC2)C2CC2)c(F)cc1C(C)C(=O)NC(CO)C(F)(F)F (single isomer, unassigned) [Compound 180]
100 to 1000	COc1cc(NC(=O)[C@@H](NC(=O)c2ccnn2C(C)C)C(C2CC2)C2CC2)c(F)cc1C(C)C(=O)NC(CO)C(F)(F)F (single isomer, unassigned) [Compound 181]
> 1000	COc1cc(NC(=O)[C@@H](NC(=O)c2ccnn2C(C)C)C(C2CC2)C2CC2)c(F)cc1C(C)C(=O)N1CC(O)CC1C(F)(F)F (single isomer, unassigned) [Compound 182]
> 1000	COc1cc(NC(=O)[C@@H](NC(=O)c2ccnn2C(C)C)C(C2CC2)C2CC2)c(F)cc1C(C)C(=O)N1CC(O)CC1C(F)(F)F (single isomer, unassigned) [Compound 183]
< 100	Cc1cc(NC(=O)[C@@H](NC(=O)c2ccnn2C(C)C)C(C2CC2)C2CC2)c(F)cc1C(C)C(=O)N1CC(O)CC1C(F)(F)F (single isomer, unassigned) [Compound 199]
